One assay is filed under the species Homo sapiens. Put plainly: Inhibitory concentration against […] induced IL1-beta production in human peripheral monocytes. The format is functional.
For assay [1], the system named is Sphingomyelin phosphodiesterase 1 (acid sphingomyelinase) (Bos taurus). Description: Inhibitory potency of compound against acidic (A-) SMase activity in bovine brain lysosomes microsomes(Ms) at concentration of 400 uM. As to conditions: Microsome.
The species entered for another assay is Bos taurus. Description: Inhibitory potency of compound against ceramide synthase activity in bovine liver microsomes(Ms) at concentration of 400 uM. As to conditions: Microsome. For orientation: Liver microsomes are a subcellular fraction often used to study metabolism.
A short description of assay [2]: Inhibitory potency of compound against neutral (N-) SMase activity in Bacillus cereus at concentration of 400 uM.
Assay [3] is described as follows: Inhibitory potency of compound against neutral (N-) SMase activity in bovine liver microsomes(Ms) at concentration of 400 uM. As to conditions: Microsome.
The nature of assay [4]: Inhibitory potency of compound against neutral (N-) SMase activity in bovine brain microsomes(Ms) at concentration of 400 uM. Conditions: Microsome.

pIC50: −log10 of the molar value.

With `CC[C@@H](C)/C=C(\C)C[C@@H](C)C[C@@H](C)/C=C/C=C/C=C/C(=O)N[C@H](CO)C[C@@]1(O)C(=O)C=C[C@@H]2O[C@@H]21` [SCYPHOSTATIN], the pIC50 (commonly the negative decadic logarithm of the IC50, by convention in mol/L) in the assay listed under Homo sapiens is 7.00.
Regarding `CCCCCCCCCCCCCCCCCC(=O)N[C@H](C(O)c1ccccc1)C(O)C(F)(F)P(=O)(O)O` (stereo partly specified), the inhibition (commonly the relative decrease from the control value, in per cent) came out at 80% in assay [1]; 0% in the assay listed under Bos taurus; 0% in assay [2]; 15% in assay [3]; 50% in assay [4].

For the origin of these results see ChEMBL document CHEMBL1134756, “Synthesis and evaluation of a difluoromethylene analogue of sphingomyelin as an inhibitor of sphingomyelinase” (Bioorg Med Chem Lett, 2001).
